Source: paper PMC12396409, “Screening and hit evaluation of a microbial metabolite library against the pathogenic Plasmodium falciparum and Toxoplasma gondii parasites” (International Journal for Parasitology: Drugs and Drug …, 2025)
Read-outs that look alike come from different tables or passages of the source.

Experiments:
[1] = tested on: P. falciparum 3D7 parasites; experiment: P. falciparum growth inhibition assay, 2-cycle (120 h treatment), delayed-death screen and dose-response; assay type: cell-based, Plasmodium falciparum; settings: for activity at 2 µg/mL: Plasmodium falciparum, 3D7
[2] = tested on: T. gondii RH strain (RH-Tub-eYFP) tachyzoites; experiment: microbe, parasite or virus in culture; assay type: cell-based, Toxoplasma gondii
[3] = tested on: P. falciparum 3D7 parasites; experiment: P. falciparum growth inhibition assay, 1-cycle (72 h treatment), SYBR DNA staining (library screen at 2 μg/mL and dose-response); assay type: cell-based, Plasmodium falciparum; settings: for activity at 2 µg/mL: Plasmodium falciparum, 3D7
[4] = library screen at 2 μg/mL, 120 h, % growth, replicate 1
[5] = library screen at 2 μg/mL, 120 h, % growth, replicate 2
[6] = library screen at 2 μg/mL, 72 h, % growth, replicate 1
[7] = library screen at 2 μg/mL, 72 h, % growth, replicate 2
[8] = P. falciparum, 120 h, screen at 2 μg/mL, replicate 1, read-out: Pf_120h_%Growth_Rep1
[9] = P. falciparum, 120 h, screen at 2 μg/mL, replicate 2, read-out: Pf_120h_%Growth_Rep2
[10] = P. falciparum, 72 h, screen at 2 μg/mL, replicate 1, read-out: Pf_72h_%Growth_Rep1
[11] = P. falciparum, 72 h, screen at 2 μg/mL, replicate 2, read-out: Pf_72h_%Growth_Rep2
[12] = P. falciparum 3D7, 120 h, parasite screen at 2 μg/mL, % growth, replicate 1
[13] = P. falciparum 3D7, 120 h, parasite screen at 2 μg/mL, % growth, replicate 2
[14] = T. gondii, 72 h, parasite screen at 2 μg/mL, % growth, replicate 1
[15] = T. gondii, 72 h, parasite screen at 2 μg/mL, % growth, replicate 2
[16] = P. falciparum 3D7, 72 h, parasite screen at 2 μg/mL, % growth, replicate 1
[17] = P. falciparum 3D7, 72 h, parasite screen at 2 μg/mL, % growth, replicate 2
[18] = P. falciparum 3D7, 120 h, library screen at 2 μg/mL, % growth, replicate 1
[19] = P. falciparum 3D7, 120 h, library screen at 2 μg/mL, % growth, replicate 2
[20] = T. gondii RH, 72 h, library screen at 2 μg/mL, % growth, replicate 1
[21] = T. gondii RH, 72 h, library screen at 2 μg/mL, % growth, replicate 2
[22] = P. falciparum 3D7, 72 h, library screen at 2 μg/mL, % growth, replicate 1
[23] = P. falciparum 3D7, 72 h, library screen at 2 μg/mL, % growth, replicate 2
[24] = P. falciparum, 120 h, screen at 2 μg/mL, replicate 1
[25] = P. falciparum, 120 h, screen at 2 μg/mL, replicate 2
[26] = T. gondii, 72 h, screen at 2 μg/mL, replicate 1
[27] = T. gondii, 72 h, screen at 2 μg/mL, replicate 2
[28] = P. falciparum, 72 h, screen at 2 μg/mL, replicate 1
[29] = P. falciparum, 72 h, screen at 2 μg/mL, replicate 2

Structure (SMILES): CO[C@@H]1[C@@H](O[C@@H]2O[C@H](C)[C@@H](O[C@H]3C[C@@](C)(O)[C@@H](O)[C@H](C)O3)[C@H](N(C)C)[C@H]2O)[C@@H](CC=O)C[C@@H](C)[C@@H](O[C@H]2CC[C@H](N(C)C)[C@@H](C)O2)/C=C/C=C/C[C@@H](C)OC(=O)C[C@H]1O [Spiramycin I, reference compound]
- 2) Growth (%) at 120 h ([1]; P. falciparum, 2 μg/mL, 120 h): 11.98%
- Pf_120h_%Growth_Rep1 ([1]; P. falciparum, 120 h, parasite screen 2 μg/mL, % growth, replicate 1): 15.80%
- Pf_120h_%Growth_Rep2 ([1]; P. falciparum, 120 h, parasite screen 2 μg/mL, % growth, replicate 2): 8.16%
- 3) Fold change (72 h/120 h) ([1]; P. falciparum, growth at 72 h / growth at 120 h, 2 μg/mL): 6.0
- Tg_72h_%Growth_Rep1 ([2]; T. gondii, 72 h, parasite screen 2 μg/mL, % growth, replicate 1): 20.85%
- Tg_72h_%Growth_Rep2 ([2]; T. gondii, 72 h, parasite screen 2 μg/mL, % growth, replicate 2): 24.90%
- 1) Growth (%) at 72 h ([3]; P. falciparum, 2 μg/mL, 72 h): 71.72%
- Pf_72h_%Growth_Rep1 ([3]; P. falciparum, 72 h, parasite screen 2 μg/mL, % growth, replicate 1): 60.09%
- Pf_72h_%Growth_Rep2 ([3]; P. falciparum, 72 h, parasite screen 2 μg/mL, % growth, replicate 2): 83.34%

Structure (SMILES): C/C=C(/C)c1cc(O)c(C)c2c1Oc1c(C)c(O)cc(/C(C)=C\C)c1C(=O)O2 [Folipastatin]
- Pf_120h_%Growth_Rep1 [1, 4]: 81.33%
- Pf_120h_%Growth_Rep2 [1, 5]: 105.49%
- Tg_72h_%Growth_Rep1 [2, 6]: 114.14%
- Tg_72h_%Growth_Rep2 [2, 7]: 93.99%
- Pf_72h_%Growth_Rep1 [3, 6]: 84.22%
- Pf_72h_%Growth_Rep2 [3, 7]: 87.89%

Structure (SMILES): CO/C1=C\C(C)=C\[C@@H](C)[C@@H](O)[C@@H](C)C/C(C)=C/C=C/[C@H](OC)[C@@H]([C@@H](C)[C@@H](O)[C@H](C)[C@@]2(O)C[C@@H](O)[C@H](C)[C@@H](C(C)C)O2)OC1=O [Bafilomycin A1]
- activity at 2 µg/mL ([1]; library screen at 2 μg/mL, 120 h, % growth, replicate 1, read-out: Pf_120h_%Growth_Rep1): 5.49%
- activity at 2 µg/mL ([1]; library screen at 2 μg/mL, 120 h, % growth, replicate 2, read-out: Pf_120h_%Growth_Rep2): 9.47%
- percent parasite growth at 2 µg/mL ([2]; Toxoplasma gondii, 72 h, library screen at 2 μg/mL, 72 h, % growth, replicate 1; read-out: Tg_72h_%Growth_Rep1): -1.58%
- percent parasite growth at 2 µg/mL ([2]; Toxoplasma gondii, 72 h, library screen at 2 μg/mL, 72 h, % growth, replicate 2; read-out: Tg_72h_%Growth_Rep2): 0.71%
- activity at 2 µg/mL ([3]; library screen at 2 μg/mL, 72 h, % growth, replicate 1, read-out: Pf_72h_%Growth_Rep1): 3.38%
- activity at 2 µg/mL ([3]; library screen at 2 μg/mL, 72 h, % growth, replicate 2, read-out: Pf_72h_%Growth_Rep2): 2.45%

Structure (SMILES): CC(=O)Nc1c2sscc-2n(C)c1=O [Thiolutin]
- activity at 2 µg/mL [1, 8]: 42.4%
- activity at 2 µg/mL [1, 9]: 15.5%
- percent parasite growth at 2 µg/mL ([2]; Toxoplasma gondii; T. gondii, 72 h, screen at 2 μg/mL, replicate 1; read-out: Tg_72h_%Growth_Rep1): 2.01%
- percent parasite growth at 2 µg/mL ([2]; Toxoplasma gondii; T. gondii, 72 h, screen at 2 μg/mL, replicate 2; read-out: Tg_72h_%Growth_Rep2): 1.94%
- activity at 2 µg/mL [3, 10]: 4.59%
- activity at 2 µg/mL [3, 11]: 0.05%

Structure (SMILES): CC[C@H](C)C(=O)[C@@H](C)C1=CC(=O)C2=C(O[C@]3(C)CC[C@H]4O[C@@H](C(C)(C)O)CC[C@]4(C)[C@H]3C2)C1=O [Cochlioquinone B]
- activity at 2 µg/mL [1, 8]: 47%
- activity at 2 µg/mL [1, 9]: 44.2%
- percent parasite growth at 2 µg/mL ([2]; Toxoplasma gondii, 72 h, T. gondii, 72 h, screen at 2 μg/mL, replicate 1; read-out: Tg_72h_%Growth_Rep1): 110%
- percent parasite growth at 2 µg/mL ([2]; Toxoplasma gondii, 72 h, T. gondii, 72 h, screen at 2 μg/mL, replicate 2; read-out: Tg_72h_%Growth_Rep2): 83.8%
- activity at 2 µg/mL [3, 10]: 61.4%
- activity at 2 µg/mL [3, 11]: 52.9%

Structure (SMILES): CS(=O)(=O)c1ccc([C@@H](O)[C@H](N)CF)cc1 [Florfenicol amine]
- Pf_120h_%Growth_Rep1 [1, 4]: 94.89%
- Pf_120h_%Growth_Rep2 [1, 5]: 93.06%
- Tg_72h_%Growth_Rep1 [2, 6]: 102.85%
- Tg_72h_%Growth_Rep2 [2, 7]: 100.85%
- Pf_72h_%Growth_Rep1 [3, 6]: 83.39%
- Pf_72h_%Growth_Rep2 [3, 7]: 89.53%

Structure (SMILES): CNC1CC2OC(C)(C1OC)n1c3ccccc3c3c4c(c5c6ccccc6n2c5c31)C(=O)NC4=O (stereo not drawn) [BIA-O1137]
- Pf_120h_%Growth_Rep1 [1, 12]: 5.90%
- Pf_120h_%Growth_Rep2 [1, 13]: 15.39%
- Tg_72h_%Growth_Rep1 [2, 14]: 57.26%
- Tg_72h_%Growth_Rep2 [2, 15]: 18.54%
- Pf_72h_%Growth_Rep1 [3, 16]: 5.55%
- Pf_72h_%Growth_Rep2 [3, 17]: 3.48%

Structure (SMILES): CCCC1CC(C(=O)NC(C(C)O)C2OC(SC)C(O)C(O)C2O)N(C)C1 (stereo not drawn) [BIA-L1457]
- Pf_120h_%Growth_Rep1 [1, 18]: 9.59%
- Pf_120h_%Growth_Rep2 [1, 19]: 18.68%
- Tg_72h_%Growth_Rep1 [2, 20]: 26.67%
- Tg_72h_%Growth_Rep2 [2, 21]: 42.80%
- Pf_72h_%Growth_Rep1 [3, 22]: 49.27%
- Pf_72h_%Growth_Rep2 [3, 23]: 59.50%

Structure (SMILES): C=C1NC(=O)[C@H](C(C)C)NC1=O [Cyclo(delta-Ala-L-Val)]
- Pf_120h_%Growth_Rep1 [1, 24]: 80.27%
- Pf_120h_%Growth_Rep2 [1, 25]: 78.77%
- Tg_72h_%Growth_Rep1 [2, 26]: 112.17%
- Tg_72h_%Growth_Rep2 [2, 27]: 87.98%
- Pf_72h_%Growth_Rep1 [3, 28]: 78.49%
- Pf_72h_%Growth_Rep2 [3, 29]: 81.94%

Structure (SMILES): CC[C@H]1C[C@]23OC(=O)/C(=C(\O)[C@@]4(CC)[C@@H]5CC[C@H](C)[C@H](O[C@H]6C[C@H](O)[C@H](NC(=O)c7[nH]c(Cl)cc7Cl)[C@@H](C)O6)[C@H]5C=C[C@H]4C/C=C/C/C(C)=C/[C@@]2(C)C=C1C(=O)O)C3=O [Decatromicin B]
- Pf_120h_%Growth_Rep1 [1, 24]: 74.87%
- Pf_120h_%Growth_Rep2 [1, 25]: 101.36%
- Tg_72h_%Growth_Rep1 [2, 26]: 105.42%
- Tg_72h_%Growth_Rep2 [2, 27]: 104.91%
- Pf_72h_%Growth_Rep1 [3, 28]: 89.49%
- Pf_72h_%Growth_Rep2 [3, 29]: 90.33%

Structure (SMILES): CC(C)C(=O)N[C@H](CO)[C@H](O)c1ccc([N+](=O)[O-])cc1 [Corynecin III]
- Pf_120h_%Growth_Rep1 [1, 24]: 87.60%
- Pf_120h_%Growth_Rep2 [1, 25]: 90.07%
- Tg_72h_%Growth_Rep1 [2, 26]: 93.46%
- Tg_72h_%Growth_Rep2 [2, 27]: 102.63%
- Pf_72h_%Growth_Rep1 [3, 28]: 86.99%
- Pf_72h_%Growth_Rep2 [3, 29]: 97.15%

Structure (SMILES): CC=C(C)c1c(Cl)c(OC)c(C)c2c1Oc1c(Cl)c(O)c(Cl)c(C)c1C(=O)O2 [BIA-N1157]
- Pf_120h_%Growth_Rep1 [1, 12]: 89.90%
- Pf_120h_%Growth_Rep2 [1, 13]: 141.00%
- Tg_72h_%Growth_Rep1 [2, 14]: 96.79%
- Tg_72h_%Growth_Rep2 [2, 15]: 78.56%
- Pf_72h_%Growth_Rep1 [3, 16]: 86.70%
- Pf_72h_%Growth_Rep2 [3, 17]: 91.20%

Structure (SMILES): O=c1cc(O)c2nccc3c4ccccc4n1c23 [BIA-H1963]
- Pf_120h_%Growth_Rep1 [1, 18]: 105.89%
- Pf_120h_%Growth_Rep2 [1, 19]: 107.63%
- Tg_72h_%Growth_Rep1 [2, 20]: 127.63%
- Tg_72h_%Growth_Rep2 [2, 21]: 85.33%
- Pf_72h_%Growth_Rep1 [3, 22]: 88.88%
- Pf_72h_%Growth_Rep2 [3, 23]: 124.49%

Structure (SMILES): CO[C@H]1/C=C\C=C(\C)C[C@H](C)[C@H](O)[C@H](C)/C=C(C)\C=C(\C)C(=O)O[C@@H]1[C@@H](C)[C@@H](O)[C@H](C)[C@@]1(O)C[C@@H](OC(=O)/C=C/C(=O)O)[C@H](C)[C@@H](C(C)C)O1 [TS 155-2]
- Pf_120h_%Growth_Rep1 [1, 24]: 23.01%
- Pf_120h_%Growth_Rep2 [1, 25]: 6.11%
- Tg_72h_%Growth_Rep1 [2, 26]: 1.68%
- Tg_72h_%Growth_Rep2 [2, 27]: -0.35%
- Pf_72h_%Growth_Rep1 [3, 28]: 3.32%
- Pf_72h_%Growth_Rep2 [3, 29]: -2.51%

Structure (SMILES): C=CC(C)(C)c1[nH]c2ccccc2c1C[C@@H]1NC(=O)[C@@H]2CCCN2C1=O [Deoxybrevianamide E]
- Pf_120h_%Growth_Rep1 [1, 24]: 100.44%
- Pf_120h_%Growth_Rep2 [1, 25]: 95.74%
- Tg_72h_%Growth_Rep1 [2, 26]: 164.73%
- Tg_72h_%Growth_Rep2 [2, 27]: 103.33%
- Pf_72h_%Growth_Rep1 [3, 28]: 84.72%
- Pf_72h_%Growth_Rep2 [3, 29]: 85.50%
